Patent US10245246B2, “β-substituted β-amino acids and analogs as chemotherapeutic agents” (QUADRIGA BIOSCIENCES, INC., priority 2014, dated 2019)

Key:
[1] = tested on: LLCPK cells conditionally expressing hLAT1; assay type: cell-based
B16 melanoma cells = assay: In vivo tumor growth suppression, B16 efficacy model; conditions: C57BL/6 mice, s.c. B16 melanoma, dosed IP daily for 12 days; test compound 5 and 10 mg/kg, melphalan 2.5 mg/kg

N[C@@H](Cc1ccc(N(CCCl)CCCl)cc1)C(=O)O [Melphalan]
percent surviving cells in cells expressing LAT1 compared to cells not expressing LAT1 (reduction) [1]: about the same | Tumor Growth (% Control), 5 days post-dosing (B16 melanoma cells): 56 % Control | Tumor Growth (% Control), End of dosing (B16 melanoma cells): 33 % Control
